The text below walks through data of patent publication US8926083B2, “Polymerizable ink composition, ink cartridge, and inkjet printer” (Ricoh Company, Ltd., priority 2012, dated 2015).

For data set [1] the following is noted: statement of the material safety data sheet; cited from earlier work.
Data set [2] in a line: Skin sensitization test according to Local Lymph Node Assay (LLNA) method, Stimulation Index (SI). The note with it: LLNA method (OECD test guideline 429), SI less than 3 = no skin sensitization problem.
The conditions of data set [3]: in vivo.

Where two headings read alike, the source gives them in different places.

Turning to `C=CC(=O)OCC(CC)(COC(=O)C=C)COC(=O)C=C` [Trimethylol propane triacrylate (M-309), Trimethylol propane triacrylate], in data set [1], the “skin sensitization as mentioned in MSDS” value is recorded as “Toagosei Company, Limited, skin sensitization causing”.

Regarding “Diacrylate of caprolactone-modified hydroxy pivalic acid neopentyl glyco”, the SI value entry in data set [2] is “manufactured by Nippon Kayaku Co., Ltd., SI Value = 0.9):”.

`C=C(C)C(=O)OCCCCOC(=O)C(=C)C` [1,4-butane diol dimethacrylate]: in data set [2], the SI value is given as 2.6):.

Consider “Polypropylene glycol (n = 9) dimethacrylate”, for which the SI value in data set [3] was 1.3):.

With `C=CC(=O)OCC(CC)(COC(=O)C=C)COC(=O)C=C` [Trimethylol propane triacrylate (SR-350), Trimethylol propane triacrylate], in data set [2], the SI value is recorded as 1.9):.
